Test results from ChEMBL document CHEMBL4364246, “Synthesis and biological evaluation of 5-aminoethyl benzophenanthridone derivatives as DNA topoisomerase IB inhibitors” (Eur J Med Chem, 2019).
The source made the active and inactive calls. The calls are words filed in the database; no cut-off is given here.

Key:
[1] = target: T1, DNA topoisomerase 1 (Homo sapiens) (UniProt P11387); assay: Inhibition of TOP1 in human HCT116 cells assessed as induction of cellular TOP1cc formation incubated for 1 hr by chemiluminescence based assay; type: cell-based
T1 sequence (whole entry): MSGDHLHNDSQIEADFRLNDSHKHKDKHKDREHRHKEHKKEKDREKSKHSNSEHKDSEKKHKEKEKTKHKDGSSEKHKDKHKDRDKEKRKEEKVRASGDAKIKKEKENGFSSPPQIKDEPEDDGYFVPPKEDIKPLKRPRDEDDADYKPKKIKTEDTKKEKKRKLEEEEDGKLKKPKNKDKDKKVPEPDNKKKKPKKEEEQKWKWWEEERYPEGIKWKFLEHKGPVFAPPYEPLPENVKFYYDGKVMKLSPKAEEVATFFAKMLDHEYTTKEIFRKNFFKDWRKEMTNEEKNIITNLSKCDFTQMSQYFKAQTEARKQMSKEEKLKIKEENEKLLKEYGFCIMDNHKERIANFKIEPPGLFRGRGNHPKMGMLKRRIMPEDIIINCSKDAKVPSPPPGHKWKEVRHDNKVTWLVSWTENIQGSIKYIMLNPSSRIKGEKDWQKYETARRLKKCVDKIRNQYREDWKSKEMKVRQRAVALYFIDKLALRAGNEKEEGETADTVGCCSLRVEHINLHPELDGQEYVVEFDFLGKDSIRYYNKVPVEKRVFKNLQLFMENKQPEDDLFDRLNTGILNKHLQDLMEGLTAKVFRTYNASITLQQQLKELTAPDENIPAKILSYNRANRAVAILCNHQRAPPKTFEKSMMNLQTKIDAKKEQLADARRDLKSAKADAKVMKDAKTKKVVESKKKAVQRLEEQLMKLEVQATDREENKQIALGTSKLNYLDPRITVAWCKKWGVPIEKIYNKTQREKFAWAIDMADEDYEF

[2] = Acute toxicity in Kunming mouse assessed as animal survival at 122.9 mg/kg, ip administrated as single dose measured for 7 days post administration; type: organism-based; details: in vivo
HCT-116 [3] = assay: Induction of apoptosis in human HCT116 cells assessed as viable cells at 0.5 uM incubated for 24 hrs by FITC and PI staining based flow cytometric analysis (reference value: 99.27%); type: functional; details: HCT-116, 24 h, read-out: Activity
HCT-116 [4] = assay: Antitumour activity against human HCT116 cells xenografted in ip dosed athymic nude nu/nu mouse assessed as reduction in tumor volume administrated daily by caliper method; type: functional, organism-based
[5] = Acute toxicity in ip dosed Kunming mouse assessed as mortality administrated for 7 days; type: organism-based; details: in vivo, 168 h
[6] = Acute toxicity in Kunming mouse assessed as mortality at 153.6 to 240 mg/kg, ip administrated as single dose measured for 7 days post drug administration; type: organism-based; details: in vivo, 168 h
MCF7 [7] = assay: Antitumour activity against human MCF7 cells xenografted in athymic nude nu/nu mouse assessed as inhibition in tumor weight at 20 mg/kg administrated daily by caliper method relative to control; type: functional
MCF7 [8] = assay: Antitumour activity against human MCF7 cells xenografted in ip dosed athymic nude nu/nu mouse assessed as reduction in tumor volume administrated daily by caliper method; type: functional, organism-based
[9] = AUC (0 to infinity) in Sprague-Dawley rat at 1 mg/kg, iv measured for 0.083 to 4 hrs by LC-MS/MS analysis; type: ADME, organism-based; design: dose 1 mg/kg, route intravenous, time infinity; details: in vivo
HCT-116 [10] = assay: Growth inhibition of human HCT116 cells expressing siTOP1 incubated for 72 hrs by MTT assay; type: functional; details: HCT-116, 72 h
HCT-116 [11] = assay: Antitumour activity against human HCT116 cells xenografted in athymic nude nu/nu mouse assessed as inhibition in tumor weight at 10 mg/kg administrated daily by caliper method relative to control; type: functional
[12] = target: T1, DNA topoisomerase 1 (Homo sapiens); assay: Inhibition of TOP1 in human HCT116 cells assessed as induction of DNA damage by measuring increase in gammaH2AX foci at 1 uM incubated for 3 hrs by DAPI staining based immunofluorescence microscopic method; type: cell-based
[13] = AUC (0 to t) in Sprague-Dawley rat at 1 mg/kg, iv measured for 0.083 to 4 hrs by LC-MS/MS analysis; type: ADME, organism-based; design: time 0.083-4 hr, dose 1 mg/kg, route intravenous; details: in vivo
HCT-116 [14] = assay: Antitumour activity against human HCT116 cells xenografted in athymic nude nu/nu mouse assessed as inhibition in tumor weight at 5 mg/kg administrated daily by caliper method relative to control; type: functional
[15] = Oral bioavailability in Sprague-Dawley rat at 5 mg/kg measured for 0.083 to 4 hrs by LC-MS/MS analysis; type: ADME, organism-based; details: in vivo
[16] = Acute toxicity in Kunming mouse assessed as mortality at 300 mg/kg, ip administrated as single dose measured within 5 days after drug administration; type: organism-based; details: in vivo, 120 h
MCF7 [17] = assay: Antitumour activity against human MCF7 cells xenografted in athymic nude nu/nu mouse assessed as inhibition in tumor weight at 10 mg/kg administrated daily by caliper method relative to control; type: functional
[18] = target: T1, DNA topoisomerase 1 (Homo sapiens); assay: Inhibition of TOP1 in human HCT116 cells assessed as induction of cellular TOP1cc formation at 25 uM incubated for 1 hr by chemiluminescence based assay; type: cell-based
MCF7 [19] = assay: Antitumour activity against human MCF7 cells xenografted in athymic nude nu/nu mouse assessed as inhibition in tumor weight at 5 mg/kg administrated daily by caliper method relative to control; type: functional
[20] = Half life in Sprague-Dawley rat at 1 mg/kg, iv measured for 0.083 to 4 hrs by LC-MS/MS analysis; type: ADME, organism-based; details: in vivo

Compound: CNCCn1c(=O)c2cc(OC)c(OC)cc2c2ccc3cc4c(cc3c21)OCO4
- Activity [1]: Dose-dependent effect
- survival at 168 h [2]: 100%
- viability at 0.5 µM (HCT-116 [3]): 93.3%
- inhibition (HCT-116 [4]): Dose-dependent effect
- LD50 [5]: 192 mg/kg
- Activity [6]: Toxic
- inhibition in vivo at 20 mg/kg (MCF7 [7]): 71.8%
- inhibition (MCF7 [8]): Dose-dependent effect
- AUC(0-inf) [9]: 49.5 ng·h/mL
- GI50 (HCT-116 [10]): 320 nM
- inhibition in vivo at 10 mg/kg (HCT-116 [11]): 64.5%
- Activity [12]: Active
- AUC(0-t) [13]: 47.2 ng·h/mL
- inhibition in vivo at 5 mg/kg (HCT-116 [14]): 49.3%
- F [15]: 20.4%
- Activity [16]: Toxic
- inhibition in vivo at 10 mg/kg (MCF7 [17]): 56.9%
- Activity [18]: Active
- inhibition in vivo at 5 mg/kg (MCF7 [19]): 44%
- half-life [20]: 1.21 h
